Test results from patent EP4603105A1, “PHARMACEUTICAL COMPOSITION CONTAINING CYCLIC COMPOUND HAVING SELECTIVE KRAS INHIBITORY EFFECT AGAINST HRAS AND NRAS” (CHUGAI SEIYAKU KABUSHIKI KAISHA, priority 2022, dated 2024).
*1 amine or outer side, *2 acyl side, *3 side chain or, on linkers, in order; H or OH if unused. Where a SMILES comes first, the peptide text is derived from it. Bridges are numbered along the chain shown (N, C = ends). [ ]: non-standard residue; d: D form. The star is where a group is joined. hPhe(3,5-F2-4-CF3) = N[C@@H](CCc1cc(F)c(C(F)(F)F)c(F)c1)C(=O)O; hPhe(3-Cl-4-CF3) = N[C@@H](CCc1ccc(C(F)(F)F)c(Cl)c1)C(=O)O; NPrPhe(4-CF3) = CCCN[C@@H](Cc1ccc(C(F)(F)F)cc1)C(=O)O; NMeGly(cPent) = CN[C@H](C(=O)O)C1CCCC1; αMeI = CC[C@H](C)[C@](C)(N)C(=O)O; NMeD = CN[C@@H](CC(=O)O)C(=O)O; NMeL = CN[C@@H](CC(C)C)C(=O)O; X20 = O=C(CN(CCF)[*:1])[*:2]; Pip = O=C(O)[C@@H]1CCCCN1; Morpholide = C1CN(*)CCO1; Ac5c = NC1(C(=O)O)CCCC1; Aze = O=C(O)[C@@H]1CCN1; Sar = CNCC(=O)O

Key:
HRAS wild-type protein = HRAS wild-type protein (Homo sapiens, UniProt P01112); assay: Binding to HRAS by surface plasmon resonance (SPR), KD and KD ratio to KRAS
Chain of HRAS wild-type protein (P01112 whole entry): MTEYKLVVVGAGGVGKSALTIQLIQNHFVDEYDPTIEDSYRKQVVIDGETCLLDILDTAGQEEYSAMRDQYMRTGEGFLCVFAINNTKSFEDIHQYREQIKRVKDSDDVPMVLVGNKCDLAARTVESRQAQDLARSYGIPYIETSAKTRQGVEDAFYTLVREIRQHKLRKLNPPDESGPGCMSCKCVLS
Outline: (§1)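 Biotinylated GDP-bound RAS was captured at about 100–300 RU. Running buffer: HBS pH 7.4, 10 mM MgCl2, 10 µM GDP, 1 mM DTT, 0.01% Tween 20, 4% DMSO.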

[1] = target: GDP-bound NRAS wild-type protein (Homo sapiens, UniProt P01111); assay: Binding to NRAS by surface plasmon resonance (SPR), KD and KD ratio to KRAS
Chain of GDP-bound NRAS wild-type protein (P01111 whole entry): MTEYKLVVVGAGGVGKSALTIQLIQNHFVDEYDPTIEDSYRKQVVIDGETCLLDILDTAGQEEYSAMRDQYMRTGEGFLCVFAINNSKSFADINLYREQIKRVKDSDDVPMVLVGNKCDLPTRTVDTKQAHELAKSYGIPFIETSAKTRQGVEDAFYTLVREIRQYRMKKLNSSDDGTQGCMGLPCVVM
Outline: as §1

[2] = system: human lung cancer strain NCI-H441; type: cell-based
Outline: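 Step one: dispense the test compound in serial DMSO dilutions. Step three: add the reagent and measure […].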

[3] = ratio of KD for HRAS wild-type protein to KD for KRAS
[4] = ratio of KD for GDP-bound NRAS wild-type protein to KD for KRAS
[5] = ratio of the KD value with respect to HRAS wild-type protein to the KD value with respect to KRAS
[6] = ratio of the KD value with respect to GDP-bound NRAS wild-type protein to the KD value with respect to KRAS

IC50 [2]	SMILES	HRAS /KRAS (HRAS wild-type protein; [3])	NRAS /KRAS [1, 4]	HRAS /KRAS (HRAS wild-type protein; [5])	NRAS /KRAS [1, 6]
20.8 nM	CCC(CC)[C@H]1C(=O)N(C)[C@H](C(=O)N2CCCC2)CC(=O)N(C)[C@H]2CCC/C=C/c3ccc(cc3)C[C@@H](C(=O)N(C)CC(=O)N[C@@H](CCc3ccc(Cl)c(Cl)c3)C(=O)N3CCC[C@H]3C(=O)NC3(CC(C)(C)C3)C(=O)N1C)N1CC/C=C\C[C@@H](C1=O)N(C)C(=O)CN(C)C(=O)[C@H]([C@@H](C)CC)NC2=O [PP2604]	A (a compound having 10 or more and less than 20 is denoted as A)	AA (a compound having 20 or more is denoted as AA)		
5.8 nM	CCCOC[C@H]1C(=O)N[C@@H]([C@@H](C)CC)C(=O)N2CCC[C@H]2C(=O)N(C)[C@H]2C/C=C\CCN(C2=O)[C@@H](Cc2ccc(C(F)(F)F)cc2)C(=O)N(C)CC(=O)N[C@@H](CCc2ccc(C(F)(F)F)c(OC)c2)C(=O)N2C[C@H](OCC)C[C@H]2C(=O)N(C)C2(CCC2)C(=O)N(C)[C@@H](C2CCCC2)C(=O)N(C)[C@H](C(=O)N(C)C)CC(=O)N1C [PP2322]			B (a compound having 3 or more and less than 10 is denoted as B)	A (a compound having 10 or more and less than 20 is denoted as A)
478 nM	CCCN1C(=O)CN(C)C(=O)[C@@H]2CCN2C(=O)[C@H]([C@@H](C)CC)NC(=O)[C@H](CC(C)C)N(C)C(=O)C[C@@H](C(=O)N2CCOCC2)N(C)C(=O)[C@H](C2CCCC2)N(C)C(=O)[C@](C)([C@@H](C)CC)NC(=O)[C@@H]2CCCN2C(=O)[C@H](CCc2cc(F)c(C(F)(F)F)c(F)c2)NC(=O)CN(C)C(=O)[C@@H]1Cc1ccc(C(F)(F)F)cc1 [PP0774] ([NMeL]I[Aze][Sar][NPrPhe(4-CF3)][Sar][hPhe(3,5-F2-4-CF3)]P[αMeI][NMeGly(cPent)][NMeD]-Morpholide; lactam N-11)	B (a compound having 3 or more and less than 10 is denoted as B)	B (a compound having 3 or more and less than 10 is denoted as B)		
147 nM	CCCN1C(=O)CN(C)C(=O)[C@@H]2CCN2C(=O)[C@H]([C@@H](C)CC)NC(=O)[C@H](CC(C)C)N(C)C(=O)C[C@@H](C(=O)N2CCOCC2)N(C)C(=O)[C@H](C2CCCC2)N(C)C(=O)C2(CCCC2)NC(=O)[C@@H]2CCCCN2C(=O)[C@H](CCc2ccc(C(F)(F)F)c(Cl)c2)NC(=O)CN(C)C(=O)[C@@H]1Cc1ccc(C(F)(F)F)cc1 [PP0311] ([NMeL]I[Aze][Sar][NPrPhe(4-CF3)][Sar][hPhe(3-Cl-4-CF3)][Pip][Ac5c][NMeGly(cPent)][NMeD]-Morpholide; lactam N-11)	B (a compound having 3 or more and less than 10 is denoted as B)	B (a compound having 3 or more and less than 10 is denoted as B)		
67.8 nM	CCCN1CC(=O)N(C)[C@H]2C/C=C\CCN(C2=O)[C@@H](Cc2ccc(C(F)(F)F)cc2)C(=O)N(C)CC(=O)N[C@@H](CCc2cc(F)c(C(F)(F)F)c(F)c2)C(=O)N2C[C@H](OCC)C[C@H]2C(=O)NC2(CCC2)C(=O)N(C)[C@@H](C2CCCC2)C(=O)N(C)[C@H](C(=O)N(C)C)CC(=O)N(C)[C@@H](CC)C(=O)N[C@@H]([C@@H](C)CC)C1=O [PP1053]	A (a compound having 10 or more and less than 20 is denoted as A)	A (a compound having 10 or more and less than 20 is denoted as A)		
25.5 nM	CCCN1C(=O)CN(C)C(=O)CN(CCF)C(=O)[C@H]([C@@H](C)CC)NC(=O)[C@H](CC(C)C)N(C)C(=O)C[C@@H](C(=O)N2CCOCC2)N(C)C(=O)[C@H](C2CCCC2)N(C)C(=O)C2(CCCC2)NC(=O)[C@@H]2CCCN2C(=O)[C@H](CCc2ccc(C(F)(F)F)c(Cl)c2)NC(=O)CN(C)C(=O)[C@@H]1Cc1ccc(C(F)(F)F)cc1 [PP0751] ([NMeL]I[X20][Sar][NPrPhe(4-CF3)][Sar][hPhe(3-Cl-4-CF3)]P[Ac5c][NMeGly(cPent)][NMeD]-Morpholide; lactam N-11)			C (A compound having a KD ratio of 0.1 or more and less than 3 is denoted as C)	B (a compound having 3 or more and less than 10 is denoted as B)
188 nM	CCC[C@H]1C(=O)N[C@@H]([C@@H](C)CC)C(=O)N(C2CC2)CC(=O)N(C)[C@H]2C/C=C\CCN(C2=O)[C@@H](Cc2ccc(C(F)(F)F)cc2)C(=O)N(C)CC(=O)N[C@@H](CCc2ccc(C(F)(F)F)c(OC)c2)C(=O)N2C[C@H](OCC)C[C@H]2C(=O)NC2(CC(C)(C)C2)C(=O)N(C)[C@@H](CC2CC2)C(=O)N(C)[C@H](C(=O)N(C)C)CC(=O)N1C [PP2815]	A (a compound having 10 or more and less than 20 is denoted as A)	A (a compound having 10 or more and less than 20 is denoted as A)		
127 nM	CCCO[C@H]1CCN2C(=O)[C@H](CCc3cc(F)c(C(F)(F)F)c(F)c3)NC(=O)CN(C)C(=O)[C@H](Cc3ccc(C(F)(F)F)cc3)N3CCCCC[C@@H](C3=O)N(C)C(=O)CN(C)C(=O)[C@H]([C@@H](C)CC)NC(=O)[C@H](CC(C)C)N(C)C(=O)C[C@@H](C(=O)N3CCOCC3)N(C)C(=O)[C@H](C3CCCC3)N(C)C(=O)C3(CCC3)NC(=O)[C@H]12 [PP1069]	B (a compound having 3 or more and less than 10 is denoted as B)	A (a compound having 10 or more and less than 20 is denoted as A)		
19.8 nM	CCO[C@@H]1C[C@H]2C(=O)NC3(CCC3)C(=O)N(C)[C@@H](C3CCCC3)C(=O)N(C)[C@H](C(=O)N(C)C)CC(=O)N(C)[C@@H](Cc3ccccc3)C(=O)N[C@@H]([C@@H](C)CC)C(=O)N(C)CC(=O)N(C)[C@H]3C/C=C\CCN(C3=O)[C@@H](Cc3ccc(C(F)(F)F)cc3)C(=O)N(C)CC(=O)N[C@@H](CCc3cc(F)c(C(F)(F)F)c(F)c3)C(=O)N2C1 [PP1116]	A (a compound having 10 or more and less than 20 is denoted as A)	A (a compound having 10 or more and less than 20 is denoted as A)		
307 nM	CCO[C@@H]1C[C@H]2C(=O)NC3(CCC3)C(=O)N(C)[C@@H](C3CCCC3)C(=O)N(C)[C@H](C(=O)N(C)C)CC(=O)N(C)[C@@H](CC)C(=O)N[C@@H]([C@@H](C)CC)C(=O)N3CCSC[C@H]3C(=O)N(C)[C@H]3C/C=C\CCN(C3=O)[C@@H](Cc3ccc(C(F)(F)F)cc3)C(=O)N(C)CC(=O)N[C@@H](CCc3cc(F)c(C(F)(F)F)c(F)c3)C(=O)N2C1 [PP1060]	A (a compound having 10 or more and less than 20 is denoted as A)	A (a compound having 10 or more and less than 20 is denoted as A)		
6 nM	CCC(CC)[C@H]1C(=O)N(C)[C@H](C(=O)N(C)C)CC(=O)N(C)[C@H]2CCC/C=C/c3ccc(cc3)C[C@@H](C(=O)N(C)CC(=O)N[C@@H](CCc3cc(F)c(C(F)(F)F)c(F)c3)C(=O)N3C[C@H](OC(C)C)C[C@H]3C(=O)NC3(CC(C)(C)C3)C(=O)N1C)N1CC/C=C\C[C@@H](C1=O)N(C)C(=O)CN(C)C(=O)[C@H]([C@@H](C)CC)NC2=O [PP2594]	A (a compound having 10 or more and less than 20 is denoted as A)	A (a compound having 10 or more and less than 20 is denoted as A)		
